Results from ChEMBL document CHEMBL1201862, “PubChem BioAssay data set” (2004).
Values joined by “and” are separate entries in the source; they are usually repeats but may differ in a detail not shown here. Equal values may be shown once. Active and inactive are the calls of the source. Cut-off read from the data, not from the text of the source, for most assays here: actives have a measured EC50 and inactives only a lower limit.

How the values were obtained:
[1] = target: Cytochrome P450 2D6 (Homo sapiens, UniProt P10635);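 note: CYP2D6 member of a cytochrome P450 panel assay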
Sequence of Cytochrome P450 2D6 (P10635 whole entry): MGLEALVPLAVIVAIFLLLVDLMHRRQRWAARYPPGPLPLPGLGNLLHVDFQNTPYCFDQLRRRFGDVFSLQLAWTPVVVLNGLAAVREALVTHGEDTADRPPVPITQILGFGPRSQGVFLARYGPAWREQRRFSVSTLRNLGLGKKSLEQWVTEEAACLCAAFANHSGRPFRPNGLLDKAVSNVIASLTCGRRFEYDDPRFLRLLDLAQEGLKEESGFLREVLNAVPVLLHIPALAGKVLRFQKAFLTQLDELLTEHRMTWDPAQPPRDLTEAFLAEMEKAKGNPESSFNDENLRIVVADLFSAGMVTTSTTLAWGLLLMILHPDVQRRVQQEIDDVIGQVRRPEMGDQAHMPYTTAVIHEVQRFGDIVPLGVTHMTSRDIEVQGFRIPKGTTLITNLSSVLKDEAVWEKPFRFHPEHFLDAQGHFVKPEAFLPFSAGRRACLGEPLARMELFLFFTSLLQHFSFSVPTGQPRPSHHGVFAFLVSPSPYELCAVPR

[2] = target: Cytochrome P450 3A4 (Homo sapiens, UniProt P08684);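 note: CYP3A4 tested as one member of a cytochrome P450 panel screen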
Sequence of Cytochrome P450 3A4 (P08684 whole entry): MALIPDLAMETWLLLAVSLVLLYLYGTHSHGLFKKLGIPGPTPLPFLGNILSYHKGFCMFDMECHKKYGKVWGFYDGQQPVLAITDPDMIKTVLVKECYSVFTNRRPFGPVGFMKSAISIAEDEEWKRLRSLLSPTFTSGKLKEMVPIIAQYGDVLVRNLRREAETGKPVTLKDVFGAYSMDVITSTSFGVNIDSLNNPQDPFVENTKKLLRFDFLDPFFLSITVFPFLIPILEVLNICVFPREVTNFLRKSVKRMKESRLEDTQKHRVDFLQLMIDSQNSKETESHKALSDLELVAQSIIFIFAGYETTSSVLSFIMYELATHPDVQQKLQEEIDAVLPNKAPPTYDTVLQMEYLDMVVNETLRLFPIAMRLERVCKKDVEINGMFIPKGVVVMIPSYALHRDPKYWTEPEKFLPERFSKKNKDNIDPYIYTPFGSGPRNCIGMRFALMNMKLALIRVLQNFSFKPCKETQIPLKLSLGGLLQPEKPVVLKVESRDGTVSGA

[3] = inhibitors of intracellular T. cruzi replication, confirmation, NIH3T3 host cells, beta-gal luminescence (AID 2044); format: functional, cell-based;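 note: intracellular parasites grown in NIH/3T3 mouse fibroblasts as host cells; luminescent beta-galactosidase reporter signal from transgenic T. cruzi replicating inside host cells; inhibitors lower the luminescence signal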
[4] = cytotoxicity toward NIH3T3 fibroblasts, dose response, counter-screen, cell-based, ATP luminescence, mouse fibroblasts (AID 2010); format: functional;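 note: cells exposed to compound for about 90 hours before reading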
[5] = target: T1, Heat shock factor protein 1 (Mus musculus, UniProt P38532); assay: inhibition of MG132-induced HSE-luciferase signal, confirmation, cell-based, NIH3T3, luminescence, dose retest (AID 2382); format: functional;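 note: NIH3T3 fibroblasts with HSF1-driven luciferase reporter stressed by proteasome inhibitor MG132; luminescence from HSF1-driven luciferase expression after 8 hours of MG132 stress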
T1 sequence (P38532 whole entry): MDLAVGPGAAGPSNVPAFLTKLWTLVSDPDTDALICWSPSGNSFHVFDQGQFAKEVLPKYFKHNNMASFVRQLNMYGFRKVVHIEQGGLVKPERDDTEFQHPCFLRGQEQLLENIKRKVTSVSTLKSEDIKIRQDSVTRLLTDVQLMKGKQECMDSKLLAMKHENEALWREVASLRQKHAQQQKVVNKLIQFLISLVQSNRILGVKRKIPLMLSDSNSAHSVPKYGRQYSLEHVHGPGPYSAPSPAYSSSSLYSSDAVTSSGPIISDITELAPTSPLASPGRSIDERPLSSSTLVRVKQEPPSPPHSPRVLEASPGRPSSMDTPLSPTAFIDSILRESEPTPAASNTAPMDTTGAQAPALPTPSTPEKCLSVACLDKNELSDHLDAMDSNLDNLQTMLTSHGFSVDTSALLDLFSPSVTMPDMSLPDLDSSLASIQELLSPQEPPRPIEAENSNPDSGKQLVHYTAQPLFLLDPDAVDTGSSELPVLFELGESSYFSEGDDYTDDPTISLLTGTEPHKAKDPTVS

[6] = test system: Streptococcus sp. 'group A'; assay: growth inhibition of control SK(-) GAS strain, dose response, counter-screen for streptokinase expression inhibitor project, luminescence, kanamycin, BacTiterGlo, confirmation (AID 1900); format: functional, organism-based
[7] = test system: Streptococcus; assay: Group A Streptococcus viability loss, dose response, counter-screen for streptokinase expression inhibitor project, luminescence, BacTiterGlo (AID 1915); format: functional, organism-based;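 note: potency for reduction of bacterial viability or growth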

SMILES: C=CCN1CC[C@]23c4c5ccc(O)c4O[C@@H]2/C(=N/NC(=O)c2ccccc2)CC[C@@]3(O)[C@H]1C5
- AC50 [1]: 15.8 µM (inconclusive)
- AC50 [2]: 3.98 µM (inconclusive)

SMILES: CC(C)n1cc(CN2CCN(C)C(CCO)C2)c2ccccc21 (stereo unspecified)
- EC50 [3]: 0.109 µM (active)
- EC50 [4]: > 60 µM (not active)

SMILES: COc1ccc(NC(=O)c2cc3cc(OC)ccc3oc2=N)cc1
- EC50 [5]: > 195 µM (not active)

SMILES: Cc1ccc(C(=O)N/N=C\c2ccc([N+](=O)[O-])o2)cn1
- EC50 [3]: 0.238 µM (active)
- EC50 [4]: > 60 µM (not active)

SMILES: Cc1cc(C(F)F)nn1CC(=O)NC1C(=O)N2C(C(=O)O)=C(CSc3nnnn3C)CSC12 (stereo unspecified)
- EC50 [6]: 0.09 µM (active)
- EC50 [7]: 0.106 µM (active)

SMILES: COC1CCN(Cc2c(C(=O)N3CCN(C4CCCCC4)CC3)nc3ccccn23)CC1
- EC50 [3]: 1.63 µM (active)
- EC50 [4]: > 60 µM (not active)

SMILES: CCOC(=O)c1cccc(NC(=O)CCS(=O)(=O)c2ccc(Br)s2)c1
- EC50 [5]: > 195 µM (not active)

SMILES: O=C(c1ccncc1)N1CCN(c2ccc(F)cc2)CC1
- EC50 [5]: > 195 µM (not active)

SMILES: Cc1cccc(CNc2cc(-c3ccccc3Cl)ncn2)c1
- AC50 [1]: 39.8 µM (inconclusive)

SMILES: COCC(=O)N1CCC2(CC1)CN(c1ccccn1)C2
- AC50 [1]: 20 µM (inconclusive)

SMILES: C/C(CCC(=O)OC[C@@H]1O[C@H](C#Cc2ccccc2)C=C[C@@H]1Oc1ccc(C)cc1)=N/OC[C@@H](C)[C@H](OCc1ccccc1)C(C)C
- AC50 [2]: 3.98 µM (inconclusive)

SMILES: CCCCCC(=O)N1CCCC(c2nc(-c3ccc(OC)cc3)no2)C1 (stereo unspecified)
- AC50 [1]: 15.8 µM (inconclusive)

SMILES: CCOC(=O)N1CCN(Cc2nc3c(c(=O)n(C)c(=O)n3C)n2Cc2ccccc2)CC1
- EC50 [5]: > 195 µM (not active)

SMILES: COc1ccc(C(=O)N2CCC3(CCCN(Cc4ccccc4)C3)CC2)cc1
- AC50 [2]: 31.6 µM (inconclusive)

SMILES: CN(Cc1ccccc1)C(=O)c1ccccc1NC(=O)C1=CSCCO1
- EC50 [5]: > 195 µM (not active)

SMILES: O=C(NC(=S)Nc1ccc2c(c1)OCO2)c1ccccc1
- AC50 [1]: 3.55 µM (inconclusive)

SMILES: COc1ccc(OC)c2nc(O)c(CCNC(=O)c3ccc(S(=O)(=O)N4CCCC4)cc3)cc12
- AC50 [1]: 20 µM (inconclusive)

SMILES: O=C(NCC1CCCO1)c1onc(CSc2ccc(Cl)cc2)c1C(=O)O (stereo unspecified)
- EC50 [5]: 9.58 µM (active)

SMILES: O=C(CSC1=NCCN1)Nc1ccccc1
- AC50 [2]: 5.01 µM (inconclusive)

SMILES: CNC[C@H](O)c1ccc(OC(=O)C(C)(C)C)c(OC(=O)C(C)(C)C)c1
- AC50 [2]: 10 µM (inconclusive)

SMILES: Cc1cc(C(F)(F)F)nc(SCc2ccc(C(=O)O)o2)n1
- EC50 [5]: > 195 µM (not active)

SMILES: Cc1cccc2nc(CNC(=O)CC3C(=O)NCCN3Cc3cccc(F)c3)cn12 (stereo unspecified)
- EC50 [3]: > 60 µM (not active)
- EC50 [4]: > 60 µM (not active)

SMILES: O=C(N/N=C1/C[C@@H](O)[C@@H](O)[C@@H]2[C@H]3C(=O)N(c4ccc(F)cc4F)C(=O)[C@@H]3CC[C@H]12)OCc1ccccc1
- AC50 [2]: 3.98 µM (inconclusive)

SMILES: CC(C)CNC(=O)C1CCN(Cc2ccc(OCc3ccccc3)cc2)CC1
- EC50 [5]: > 195 µM (not active)

SMILES: O=C(c1ccc2c3c(cccc13)CC2)C1CCCN(Cc2cccnc2)C1 (stereo unspecified)
- EC50 [3]: 0.709 µM (active)
- EC50 [4]: > 60 µM (not active)

SMILES: CCOc1ccc(C(=O)c2ccc([N+](=O)[O-])cc2Cl)cc1
- EC50 [3]: 2.18 µM (active)
- EC50 [4]: > 30 µM (not active)

SMILES: C/C(=N\NC(=O)CC1N=C(Cc2ccccc2)NNC1=O)c1ccc(Cl)cc1Cl (stereo unspecified)
- AC50 [1]: 15.8 µM (inconclusive)

SMILES: COc1cc(C(=O)NC2CCN(Cc3nnnn3Cc3cccs3)CC2)cc(OC)c1OC
- EC50 [5]: > 195 µM (not active)

SMILES: Clc1cc(/C=N\NC2=NCCN2)cc(Cl)n1
- EC50 [3]: 0.663 µM (active)
- EC50 [4]: > 60 µM (not active)

SMILES: Fc1cccc(NC(=S)N2CCn3cccc3C2c2cccnc2)c1 (stereo unspecified)
- EC50 [3]: 0.885 µM (active)
- EC50 [4]: > 60 µM (not active)

SMILES: CN1[C@@H]2CC[C@H]1CC(O[C@@H](c1ccccc1)c1ccc(Cl)cc1)C2 (stereo partly specified)
- AC50 [2]: 12.6 µM (inconclusive) and 15.8 µM (inconclusive)

SMILES: CCOC(=O)C1(CCOc2ccccc2)CCN(Cc2cccc3c2OCO3)CC1
- EC50 [3]: 2.1 µM (active)
- EC50 [4]: > 60 µM (not active)

SMILES: Cc1c(-c2cccc(NC(=O)c3ccco3)c2)nc2ncccn12
- EC50 [3]: 1.78 µM (active)
- EC50 [4]: > 60 µM (not active)

SMILES: Cc1ccc(NC(=O)c2cc(NC(=O)c3ccco3)ccc2N2CCOCC2)cc1
- EC50 [5]: > 195 µM (not active)

SMILES: CCCOc1ccc(CNC(=S)N/N=C/c2ccc([N+](=O)[O-])cc2)cc1
- EC50 [3]: 1.99 µM (active)
- EC50 [4]: > 60 µM (not active)

SMILES: CCO/C(O)=C1\C(C)=NC(=S)NC1c1ccsc1 (stereo unspecified)
- EC50 [5]: > 195 µM (not active)

SMILES: COc1ccc(NC(=O)CCOc2ccccc2)cc1
- AC50 [1]: 22.4 µM (inconclusive)

SMILES: O=[N+]([O-])c1nn(-c2ccc3c(c2)OCCO3)[n+]([O-])c1NCc1ccc(F)cc1
- EC50 [3]: 0.595 µM (active)
- EC50 [4]: > 60 µM (inconclusive)

SMILES: CN(C)c1ncc2nc(-c3ccc(F)cc3)c(=O)n(-c3ccccc3)c2n1
- AC50 [1]: 1.58 µM (inconclusive)

SMILES: CCC(C)(NC(=O)c1ccccc1)C(=O)O (stereo unspecified)
- EC50 [5]: > 195 µM (not active)

SMILES: CCOC(=O)C1(Cc2ccccc2C(F)(F)F)CCN(C(C)CCn2cccn2)CC1 (stereo unspecified)
- EC50 [3]: 0.944 µM (active)
- EC50 [4]: > 60 µM (not active)

SMILES: COC(=O)[C@@H]1c2cc3c(c(O)c2[C@@H](O)C[C@]1(C)O)C(=O)c1c(O)cc2c(c1C3=O)O[C@H]1O[C@@]2(C)[C@@H](O)[C@H](N(C)C)[C@H]1O
- AC50 [1]: 5.01 µM (inconclusive)

SMILES: COc1ccc(CN(C)CC(O)COc2ccc(-c3ccccc3)cc2)cc1OC (stereo unspecified)
- EC50 [3]: 0.447 µM (active)
- EC50 [4]: 21.7 µM (active)

SMILES: Cc1ccc2[nH]c(SCc3nc(O)c4cnn(-c5ccccc5)c4n3)nc2c1
- AC50 [1]: 28.2 µM (inconclusive)

SMILES: Cc1ccc(C(=O)N/C(=C\c2ccc(Br)cc2)c2n[nH]c(S)n2)cc1
- EC50 [5]: > 195 µM (not active)
- AC50 [1]: 31.6 µM (inconclusive)

SMILES: CCN1CCN(CCNC(=O)CCCCCn2c(=O)[nH]c3cc(C(=O)OC)ccc3c2=O)CC1
- EC50 [5]: > 195 µM (not active)

SMILES: O=S(=O)(Nc1ccc2oc(-c3ccccc3)nc2c1)c1ccccc1
- AC50 [1]: 25.1 µM (inconclusive)

SMILES: O=c1c(CCc2ccccc2)nc2cncnc2n1Cc1ccc(F)cc1
- AC50 [1]: 25.1 µM (inconclusive)

SMILES: CCc1cccc2c(-c3ccccc3)c3c(nc12)OCC3
- AC50 [1]: 15.8 µM (inconclusive)

SMILES: C/C(N)=C(/C#N)C(=O)CSc1nc2scc(-c3ccc(F)cc3)c2c(=O)n1C
- EC50 [6]: 2 µM (active)
- EC50 [7]: 3.17 µM (active)

SMILES: Cc1cnc(CNc2ncncc2-c2ccccc2C)cn1
- AC50 [1]: 12.6 µM (inconclusive)

SMILES: C=CCN(c1ccccc1)S(=O)(=O)c1cccc(C(=O)NC2CCN(Cc3ccccc3)CC2)c1
- EC50 [3]: 0.215 µM (active)
- EC50 [4]: 26.8 µM (active)
